The NIST ThermoML archive (doi:10.1016/j.jct.2012.12.001)
± gives the expanded uncertainty stated by the source.

Assay: heat capacity at constant pressure per volume; xn = mol fraction of the nth substance listed
Conditions: 101 kPa, Liquid, DSC, x2 = 0.713

CCCCCCCCCCCCCCCCCC [octadecane] + N#Cc1ccccc1
Conditions	heat capacity [J/K/m3]
311.31 K	1755300 ± 20000
311.34 K	1755200 ± 20000
311.37 K	1751900 ± 20000
311.39 K	1755200 ± 20000
311.42 K	1754200 ± 20000
311.45 K	1754700 ± 20000
311.48 K	1751100 ± 20000
311.51 K	1751000 ± 20000
311.54 K	1753000 ± 20000
311.56 K	1754300 ± 20000
311.59 K	1755100 ± 20000
311.62 K	1752800 ± 20000
311.65 K	1748600 ± 20000
311.68 K	1753400 ± 20000
311.7 K	1751800 ± 20000
311.73 K	1751000 ± 20000
311.76 K	1752000 ± 20000
311.79 K	1748500 ± 20000
311.82 K	1747200 ± 20000
311.85 K	1749600 ± 20000
311.87 K	1749800 ± 20000
311.9 K	1751600 ± 20000
311.93 K	1750300 ± 20000
311.96 K	1749700 ± 20000
311.99 K	1747400 ± 20000
312.01 K	1746900 ± 20000
312.04 K	1752800 ± 20000
312.07 K	1750900 ± 20000
312.1 K	1745700 ± 20000
312.13 K	1749200 ± 20000
312.15 K	1747500 ± 20000
312.18 K	1746000 ± 20000
312.21 K	1746700 ± 20000
312.24 K	1746500 ± 20000
312.27 K	1747800 ± 20000
312.3 K	1746300 ± 20000
312.32 K	1744700 ± 20000
312.35 K	1746400 ± 20000
312.38 K	1744700 ± 20000
312.41 K	1744900 ± 20000
312.44 K	1743500 ± 20000
312.46 K	1743700 ± 20000
312.49 K	1747600 ± 20000
312.52 K	1745100 ± 20000
312.55 K	1746800 ± 20000
312.58 K	1745400 ± 20000
312.6 K	1744400 ± 20000
312.63 K	1744300 ± 20000
312.66 K	1743700 ± 20000
312.69 K	1745000 ± 20000
312.72 K	1743800 ± 20000
312.75 K	1744000 ± 20000
312.77 K	1743700 ± 20000
312.8 K	1741400 ± 20000
312.83 K	1742500 ± 20000
312.86 K	1743700 ± 20000
312.88 K	1745000 ± 20000
312.91 K	1746300 ± 20000
312.94 K	1744500 ± 20000
312.97 K	1744100 ± 20000
313 K	1743500 ± 20000
313.03 K	1742300 ± 20000
313.05 K	1742800 ± 20000
313.08 K	1741900 ± 20000
313.11 K	1742400 ± 20000
313.14 K	1742800 ± 20000
313.17 K	1739000 ± 20000
313.19 K	1743700 ± 20000
313.22 K	1740000 ± 20000
313.25 K	1739100 ± 20000
313.28 K	1738800 ± 20000
313.31 K	1739500 ± 20000
313.33 K	1740400 ± 20000
313.36 K	1741400 ± 20000
313.39 K	1740700 ± 20000
313.42 K	1739700 ± 20000
313.45 K	1740900 ± 20000
313.48 K	1742600 ± 20000
313.5 K	1740800 ± 20000
313.53 K	1739000 ± 20000
313.56 K	1737700 ± 20000
313.59 K	1739600 ± 20000
313.62 K	1740700 ± 20000
313.64 K	1741100 ± 20000
313.67 K	1740500 ± 20000
313.7 K	1740400 ± 20000
313.73 K	1741200 ± 20000
313.76 K	1739900 ± 20000
313.79 K	1739100 ± 20000
313.81 K	1739300 ± 20000
313.84 K	1739200 ± 20000
313.87 K	1738900 ± 20000
313.9 K	1738100 ± 20000
313.93 K	1738700 ± 20000
313.95 K	1735100 ± 20000
313.98 K	1738800 ± 20000
314.01 K	1737700 ± 20000
314.04 K	1736700 ± 20000
314.07 K	1735400 ± 20000
314.09 K	1737000 ± 20000
314.12 K	1736800 ± 20000
314.15 K	1737300 ± 20000
314.18 K	1733500 ± 20000
314.21 K	1737800 ± 20000
314.24 K	1735200 ± 20000
314.26 K	1736900 ± 20000
314.29 K	1735200 ± 20000
314.32 K	1736400 ± 20000
314.35 K	1737400 ± 20000
314.38 K	1736600 ± 20000
314.4 K	1738700 ± 20000
314.43 K	1736600 ± 20000
314.46 K	1737000 ± 20000
314.49 K	1735500 ± 20000
314.52 K	1735300 ± 20000
314.54 K	1735400 ± 20000
314.57 K	1735300 ± 20000
314.6 K	1735500 ± 20000
314.63 K	1734500 ± 20000
314.66 K	1737100 ± 20000
314.68 K	1735100 ± 20000
314.71 K	1733900 ± 20000
314.74 K	1734500 ± 20000
314.77 K	1733900 ± 20000
314.8 K	1737400 ± 20000
314.82 K	1736200 ± 20000
314.85 K	1735600 ± 20000
314.88 K	1735100 ± 20000
314.91 K	1734300 ± 20000
314.94 K	1734100 ± 20000
314.96 K	1733300 ± 20000
314.99 K	1735100 ± 20000
315.02 K	1735000 ± 20000
315.05 K	1735200 ± 20000
315.08 K	1732600 ± 20000
315.2 K	1734500 ± 20000
315.38 K	1734200 ± 20000
315.57 K	1733800 ± 20000
315.76 K	1733400 ± 20000
315.95 K	1733200 ± 20000
316.14 K	1733100 ± 20000
316.33 K	1732700 ± 20000
316.52 K	1732000 ± 20000
316.71 K	1731600 ± 20000
316.9 K	1731300 ± 20000
317.09 K	1731000 ± 20000
317.28 K	1730800 ± 20000
317.47 K	1730300 ± 20000
317.66 K	1730100 ± 20000
317.85 K	1730000 ± 20000
318.03 K	1729900 ± 20000
318.22 K	1729800 ± 20000
318.41 K	1729400 ± 20000
318.6 K	1729300 ± 20000
318.79 K	1729200 ± 20000
318.98 K	1729000 ± 20000
319.17 K	1728800 ± 20000
319.36 K	1728600 ± 20000
319.55 K	1728600 ± 20000
319.74 K	1728300 ± 20000
319.93 K	1728200 ± 20000
320.12 K	1728000 ± 20000
320.31 K	1728000 ± 20000
320.5 K	1728000 ± 20000
320.68 K	1728000 ± 20000
320.87 K	1727900 ± 20000
321.06 K	1727600 ± 20000
321.25 K	1727500 ± 20000
321.44 K	1727400 ± 20000
321.63 K	1727200 ± 20000
321.82 K	1727200 ± 20000
322.01 K	1727300 ± 20000
322.2 K	1727200 ± 20000
322.39 K	1726900 ± 20000
322.58 K	1726600 ± 20000
322.76 K	1726900 ± 20000
322.95 K	1726900 ± 20000
323.14 K	1726800 ± 20000
323.33 K	1726700 ± 20000
323.52 K	1726500 ± 20000
323.71 K	1726800 ± 20000
323.9 K	1726900 ± 20000
324.09 K	1726700 ± 20000
324.28 K	1726700 ± 20000
324.47 K	1726600 ± 20000
324.66 K	1726600 ± 20000
324.85 K	1726700 ± 20000
325.04 K	1726500 ± 20000
325.23 K	1726500 ± 20000
325.41 K	1726500 ± 20000
325.6 K	1726500 ± 20000
325.79 K	1726500 ± 20000
325.98 K	1726300 ± 20000
326.17 K	1726400 ± 20000
326.36 K	1726600 ± 20000
326.55 K	1726500 ± 20000
326.74 K	1726700 ± 20000
326.93 K	1726700 ± 20000
327.12 K	1726400 ± 20000
327.31 K	1726600 ± 20000
327.5 K	1726500 ± 20000
327.69 K	1726700 ± 20000
327.87 K	1726500 ± 20000
328.06 K	1726500 ± 20000
328.25 K	1726700 ± 20000
328.44 K	1726900 ± 20000
328.63 K	1726600 ± 20000
328.82 K	1726700 ± 20000
329.01 K	1726800 ± 20000
329.2 K	1726900 ± 20000
329.39 K	1726800 ± 20000
329.58 K	1726700 ± 20000
329.77 K	1726700 ± 20000
329.95 K	1726800 ± 20000
330.14 K	1726900 ± 20000
330.33 K	1726900 ± 20000
330.52 K	1726800 ± 20000
330.71 K	1727000 ± 20000
330.9 K	1727000 ± 20000
331.09 K	1727200 ± 20000
331.28 K	1727300 ± 20000
331.47 K	1727100 ± 20000
331.66 K	1727200 ± 20000
331.85 K	1727200 ± 20000
332.04 K	1727200 ± 20000
332.23 K	1727200 ± 20000
332.42 K	1727100 ± 20000
332.61 K	1727100 ± 20000
332.79 K	1727400 ± 20000
332.98 K	1727300 ± 20000
333.17 K	1727400 ± 20000
333.36 K	1727300 ± 20000
333.55 K	1727600 ± 20000
333.74 K	1728000 ± 20000
333.93 K	1727700 ± 20000
334.12 K	1727800 ± 20000
334.31 K	1727700 ± 20000
334.5 K	1727900 ± 20000
334.69 K	1728100 ± 20000
334.88 K	1728200 ± 20000
335.06 K	1728100 ± 20000
335.25 K	1728100 ± 20000
335.44 K	1728300 ± 20000
335.63 K	1728300 ± 20000
335.82 K	1728600 ± 20000
336.01 K	1729000 ± 20000
336.2 K	1729000 ± 20000
336.39 K	1728800 ± 20000
336.58 K	1729000 ± 20000
336.77 K	1729100 ± 20000
336.96 K	1729000 ± 20000
337.15 K	1729000 ± 20000
337.34 K	1729200 ± 20000
337.52 K	1729100 ± 20000
337.71 K	1729200 ± 20000
337.9 K	1729200 ± 20000
338.09 K	1729300 ± 20000
338.28 K	1729700 ± 20000
338.47 K	1729900 ± 20000
338.66 K	1729900 ± 20000
338.85 K	1729600 ± 20000
339.04 K	1730200 ± 20000
339.23 K	1730200 ± 20000
339.42 K	1730600 ± 20000
339.61 K	1730700 ± 20000
339.8 K	1730900 ± 20000
339.99 K	1730600 ± 20000
340.17 K	1730800 ± 20000
340.36 K	1730700 ± 20000
340.55 K	1730900 ± 20000
340.74 K	1731100 ± 20000
340.93 K	1730900 ± 20000
341.12 K	1730900 ± 20000
341.31 K	1731200 ± 20000
341.5 K	1731200 ± 20000
